Results from PubChem BioAssay AID1949 (Southern Research Institute, 2009).
In brackets after ≈: the same amount, converted by molar mass. Inconclusive results are not listed. Activity calls are given as the source filed them. How the calls were made is not given here.

test system: M. tuberculosis H37Rv growth inhibition; test: Confirmatory growth inhibition assay against Mycobacterium tuberculosis H37Rv, potency (AID 1949);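 further: bacteria grown 7 days with compound before Alamar blue readout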

Compound	IC50
COc1cccc2c1OC(c1ccccc1)C([N+](=O)[O-])=C2 (stereo unspecified)	0.7 µg/mL (≈ 2.47 µM)
Cc1c(C(=O)Nc2ccc(Cl)cc2)sc(N)c1C(=O)OC(C)C	7.88 µg/mL (≈ 22.3 µM)
CC(C)C(=O)N1CCN(c2ccccc2NC(=O)c2ccc([N+](=O)[O-])o2)CC1	1.95 µg/mL (≈ 5.05 µM)
CCn1c2ccc(F)cc2c2nc3ccccc3nc21	6.92 µg/mL (≈ 26.1 µM)
COc1ccc(-c2csc(-c3cccnc3)n2)cc1C	12.9 µg/mL (≈ 45.9 µM)
CCOC(=O)c1c(NC(=S)NC(C)c2ccncc2)sc2c1CCCCCC2 (stereo unspecified)	32.8 µg/mL (≈ 78.6 µM)
CC(C)(C)c1ccc(C(=O)Nc2ccc(NC(=S)NC(=O)c3cccs3)cc2)cc1	0.46 µg/mL (≈ 1.05 µM)
O=C(CCc1ccccc1)NC(=S)Nc1ccc(N2CCCCC2)cc1	0.27 µg/mL (≈ 0.735 µM)
Cc1ccc(-c2cnc(C)c(-c3ccccc3)c2)nc1-c1ccccc1	> 50 µg/mL (inactive)
CCC(C(=O)O/N=C(\N)Cc1cccc2ccccc12)c1ccccc1 (stereo unspecified)	10.1 µg/mL (≈ 29.2 µM)
COc1cc(/C=C/c2ccc3cccc(OC)c3n2)c(Cl)cc1OC(C)=O	35.3 µg/mL (≈ 92 µM)
CCOC(=O)COc1ccc2cc(-c3nc4ccccc4s3)c(=O)oc2c1	1.35 µg/mL (≈ 3.54 µM)
c1ccc(CCN2CCN(c3ncnc4sc5c(c34)CCCC5)CC2)cc1	23.9 µg/mL (≈ 63.2 µM)
COc1ccc(Nc2ccnc3cc4ccccc4cc23)cc1	0.74 µg/mL (≈ 2.46 µM)
O=C(COc1ccc(Br)cc1)c1ccc(F)cc1	10.7 µg/mL (≈ 34.5 µM)
O=C(Nc1cccc2cccnc12)c1ccc([N+](=O)[O-])o1	8.91 µg/mL (≈ 31.5 µM)
COCCNS(=O)(=O)c1ccc(-c2ccc(C)cc2)cc1	0.49 µg/mL (≈ 1.6 µM)
Cc1ccc2cccc(OCCOc3ccccc3C(C)C)c2n1	4.02 µg/mL (≈ 12.5 µM)
Oc1ccccc1Nc1nc(NCc2ccco2)c2ccccc2n1	5.36 µg/mL (≈ 16.1 µM)
NC(=O)c1c(NC(=O)c2c(F)c(F)c(F)c(F)c2F)sc2c1CCC2	2.77 µg/mL (≈ 7.36 µM)
COc1ccc(OC(C)C(=O)Nc2ccc(Cl)cc2C)cc1 (stereo unspecified)	0.62 µg/mL (≈ 1.94 µM)
O=C(CC1(O)C(=O)N(CCc2ccccc2)c2ccc(Cl)cc21)c1ccc(Cl)s1 (stereo unspecified)	5.18 µg/mL (≈ 11.6 µM)
Cc1ccc(N2CCN(CC(O)COc3ccc4ccccc4c3)CC2)c(C)c1 (stereo unspecified)	9.31 µg/mL (≈ 23.8 µM)

Compound	IC50
Cc1ccc(-c2nc3ccc(Br)cc3c(=O)o2)cc1C	> 50 µg/mL (inactive)
COc1cc(CNCc2cccnc2)ccc1OCc1ccc(Cl)cc1Cl	8.24 µg/mL (≈ 20.4 µM)
CCCN1C(=O)c2cccc3cc([N+](=O)[O-])cc(c23)C1=O	< 0.1 µg/mL
COC(=O)COc1ccc(-c2ccccc2)cc1	0.22 µg/mL (≈ 0.908 µM)
COc1ccc2nc(/C(C#N)=C\c3cccn3-c3ccccc3F)[nH]c2c1	4.8 µg/mL (≈ 13.4 µM)
CCc1ccccc1N1C(=O)c2cccc3c([N+](=O)[O-])ccc(c23)C1=O	19 µg/mL (≈ 54.9 µM)
CCOC(=O)c1c(C)n(-c2ccc(C)cc2)c2ccc(O)c(CN(C)C)c12	10.9 µg/mL (≈ 29.6 µM)
CCc1ccccc1-n1c(=O)oc2ccc(Cl)cc2c1=O	1.37 µg/mL (≈ 4.54 µM)
N#Cc1ccc(Sc2nc3ccccc3o2)c([N+](=O)[O-])c1	> 50 µg/mL (inactive)
O=C(Nc1ccc(N2CCN(Cc3ccccc3F)CC2)cc1)c1ccc([N+](=O)[O-])o1	0.28 µg/mL (≈ 0.66 µM)
COc1ccc(NC(=O)CC23CC4CC(CC(C4)C2)C3)cc1Cl	3.05 µg/mL (≈ 9.14 µM)
CN(C)c1ccc(NC(=O)c2ccncc2)cc1	2.89 µg/mL (≈ 12 µM)
Cn1c(=O)[nH]c2nnc(-c3ccccn3)nc2c1=O	> 50 µg/mL (inactive)
COc1ccc(CNC(=O)c2sc3nc4c(c(C(F)(F)F)c3c2N)CC(C)CC4)cc1OC (stereo unspecified)	> 50 µg/mL (inactive)
O=C(Nc1ccc2c(c1)OCCO2)NC12CC3CC(CC(C3)C1)C2	4.52 µg/mL (≈ 13.8 µM)
Brc1ccc(Nc2nc(-c3ccccn3)cs2)cc1	0.13 µg/mL (≈ 0.391 µM)
Brc1ccc2ncnc(Nc3ccc(N4CCCC4)cc3)c2c1	< 0.1 µg/mL
Oc1ccc(Br)cc1C1=NNC(c2ccc(F)cc2)C1 (stereo unspecified)	2.89 µg/mL (≈ 8.62 µM)
Cc1ccc2nc(N/N=C\c3ccc([N+](=O)[O-])o3)nc(-c3ccccc3)c2c1	3.63 µg/mL (≈ 9.72 µM)
O=C(Nc1ccc(-c2cc3ccccc3oc2=O)cc1)c1cc(-n2cnnc2)ccc1Cl	6.92 µg/mL (≈ 15.6 µM)
Cn1c(Sc2cnn(-c3ccccc3)c(=O)c2Br)nnc1-c1ccccc1	2.81 µg/mL (≈ 6.38 µM)
O=C(Nc1nnc(C2CCCCC2)s1)c1sc2ccccc2c1Cl	0.37 µg/mL (≈ 0.979 µM)
O=C(CCNc1cccc(Br)c1)c1cccs1	5.43 µg/mL (≈ 17.5 µM)
